Measurements published in patent publication US20060269594A1, “Liposomal antineoplastic drugs and uses thereof” (Inex Pharmaceuticals Corporation, priority 2000, published 2006).
Like-named read-outs stand apart in the source and are kept apart here.

How the values were obtained:
[1] = cited from earlier work
[2] = Myelosuppression and neutropenia studies (blood CBC and differential); format: in vivo, ICR mice; conditions: 10 mg/kg i.v., day 3
Method: Myelosuppression and neutropenia studies. […] Empty vesicles were administered as a control. CBC and differential analysis was performed at Central Labs for Veterinarians (Langley, BC) to quantify cellular levels, ratios and morphology.

[3] = test system: LX-1 human lung carcinoma; experiment: LX-1 human lung carcinoma xenograft (s.c.), efficacy and toxicity; format: in vivo, nude mice; conditions: LX-1, single dose; free at evaluated doses <30 mg/kg
Description: In the above formula, MTD is the maximum tolerated dose, defined as that dose that causes a mean weight loss of 20% in a group of animals; and MED is the minimal effective dose, defined as the dose that produces an optimal % T/C value of ≦40 in the solid tumor models or an % ILS of 50±10% in the survival models.

[4] = test system: MX-1 human breast carcinoma; experiment: MX-1 human breast carcinoma xenograft (s.c.), efficacy and toxicity; format: in vivo, nude mice
Method: Tumor Models. […] Human MX-1 and LX-1 cell lines were obtained from the DCTD Tumor Repository in Frederick, Md. These cell lines were received as tumor fragments and were propagated in NCr nude mice by serial transplantation of 3×3 mm fragments. Experiments were not initiated until the cell lines had been through 3 passages in nude mice and the tumor lines were restarted when the passage number reached 10.
Efficacy Studies. […] For the MX-1 and LX-1 tumor models, tumor volume was determined by repeated perpendicular measurements of tumor dimensions and using the formula: Volume (mm^3)=(L×W^2)/2

[5] = Pharmacokinetic and in vivo leakage studies; conditions: plasma, ICR mice; for AUC / Cmax / clearance: mouse, iv
Method: 5. Pharmacokinetic and in vivo leakage studies. […] Two different drug-to-lipid ratios, i.e., 0.10 (w/w) and 0.02 (w/w), were used to examine the influence of drug-to-lipid ratio and lipid dose on drug leakage and PK behavior. Encapsulated topotecan was administered at 1 mg/kg (10 or 50 mg/kg lipid) and 5 mg/kg topotecan (50 mg/kg lipid). […] Total topotecan in blood was determined by a fluorescence assay preceded by precipitation of plasma proteins. Topotecan was quantified by spectrofluorimetry at an excitation (2.5 nm slit width) and emission wavelength (2.5 nm slit width) of 380 and 518 nm, respectively. Lipid levels in plasma were determined by liquid scintillation counting of the [^3H]-CHE label.

[6] = MX-1 s.c., single i.v. dose 5 mg/kg

## CC[C@@]1(O)C(=O)OCc2c1cc1n(c2=O)Cc2cc3c(CN(C)C)c(O)ccc3nc2-1 [Free, 9-dimethylaminomethyl-10-hydroxy-camptothecin]
[1]; qdx5 schedule, converted
  LD10: ~4.7 mg/kg/dose
[1]; single intravenous infusion in mice (Hycamtin product monograph)
  LD10: 75 mg/M^2
[1]; single intravenous infusion in mice, converted
  LD10: ~25 mg/kg
[2]
  differences in neutrophil, WBC and lymphocyte parameters: No significant differences
[3]
  anti-tumor activity in initial single dose studies: inactive
[4]; MX-1, q7dx3, 5 or 10 mg/kg/dose
  anti-tumor activity: little activity
[4]; MX-1 s.c., q7dx3, 10 mg/kg/dose i.v.
  % T/C (optimal, following final treatment): 61%
[4]; [6]
  % T/C (optimal, following final treatment): 78%
  T − C (tumor growth delay to 500 mm^3): 0.2 days
[4]; MX-1 s.c., single i.v. dose 40 mg/kg
  % T/C (optimal, following final treatment): 24%
[5]; 1 mg/kg i.v.
  AUC: 1970 ng·h/mL
  Cmax: 750 ng/mL
  clearance: 0.232 mL/min
  α1/2: 0.14 h
[5]; 5 mg/kg i.v.
  AUC: 2770 ng·h/mL
  Cmax: 2170 ng/mL
  clearance: 0.827 mL/min
  α1/2: 0.26 h
